Assay results as given in patent publication US11207289B2, “Use of benzofuran lignans to induce IL-25 expression and suppress mammary tumor metastasis” (ACADEMIA SINICA, priority 2016, dated 2021).

Experiments:
mouse IL-25 = assay: 3-D culture, western blot of IL-25 in 3T3 fibroblasts and 3T3-CM; format: cell-based
Procedure: To mimic the tumor microenvironment, a 3-dimensional (3-D) co-culture system was employed for the maintenance of mammary tumor cells and tumor-associated fibroblasts in adjacent collagen gels as reported in Rajan et al., Nature protocols, 1, 2753-2758 (2006). More specifically, rat tail collagen solution dissolved in acetic acid was neutralized by 1 N NaOH and then mixed with 10×PBS at 4° C. in a ratio of 9:1. To construct solid tumor-like cell mass, mouse (4T1 or TS/A cells) or human (MCF-7 or MDA-MB-231 cells) mammary tumor cells in each correspondent culture medium (1×10^6 cells/ml) were mixed with 4 mg/ml collagen solution in a ratio of 1:1. Four drops of collagen-tumor cell mixture ([…]) were immediately and separately loaded on culture substratum in each well of a 6-well plate. The plates were then turned-over and kept in CO2 incubator at 37° C. for collagen gelation. […]
To pull down and deplete IL-25 protein molecules in 3T3 or MDA-MB-231 cell conditioned media, the Dynabeads antibody coupling kit (Life Technology; 14311D) was used according to the manufacturer's recommendations, yielding 10 mg/ml anti-IL25 antibody (ProteinTech, Chicago, Ill.)-coupled beads. […] The antibody-pulled down proteins from 3T3-CM, NHDF-CM or WI38-CM, were detected for the content of secreted IL-25 protein in each conditioned medium using western blot analysis. […]

MDA-MB-231 cells = assay: MTT assay, cytotoxic effect on MDA-MB-231; format: cell-based, human
Procedure: (§1) M10, WI38, SKBR3, and MDA-MB-231 cells (1×10^5 cells/ml) dispensed in 96-well plates were incubated with vehicle or test compounds (Q2-3) for 24 h or 72 h in corresponding basal medium in a 5% CO2 incubator. To evaluate the effect of secreted IL-25 from Q2-3-treated fibroblasts on growth activity of mammary tumor cells, 4T1 and MDA-MB-231 cells (1×10^4 cells/ml) dispensed in 96-well plates were incubated with control medium or different fibroblast conditioned media (200 μl/ml) which was changed daily for 5 days. All treatments were performed in triplicate cell cultures. The growth activity of cells was assayed using a 3-(4, 5-dimethythiazol-2-yl)-2, 5-diphenyl tetrazolium bromide (MTT; Sigma-Aldrich) colorimetric method. The absorbance at 570 nm (A570) was measured using a multiwall scanning spectrophotometer.
(§2) FIG. 1 is a schematic depiction of cytotoxic effects of dihydrobenzofuran lignan (Q2-3) on breast tumor cells. (a): Scheme for synthesis of Q2-3 (methyl (E)-3-[2-(3,4-dihydroxyphenyl)-7-hydroxy-3-methoxycarbonyl-2,3-dihydro-1-benzofuran-5yl]prop-2-enoate) from two caffeic acid methyl ester molecules. (b) and (c): MTT assays for cytotoxic effect of Q2-3 on SKBR3 (ER^−Her^+ human breast cancer cell line), MDA-MB-231 (ER^−Her^− human breast cancer cell line), M10 (human normal epithelial cell line) and WI38 (human lung fibroblast cell line). 2×10^4 cells were seeded and compared for their growth activity after treatment with Q2-3 for 24 or 72 h. The beginning cytotoxic dosage of Q2-3 was detected at 0.3 μM, with >50% kill rate on SKBR3 and MDA-MB-231 cells.
(§3) The effects of Q2-3 on cell viability were tested on four different cell lines, i.e., normal human mammary epithelial (M10), normal human […] (WI38), and two human mammary tumor cells (SKBR3 and MDA-MB-231), by treating cells with Q2-3 at various concentrations for 24 h (FIG. 1b) and 72 h (FIG. 1c).

MDA-MB-231-Luc2 cells = assay: MDA-MD-231-Luc2 tumor resection model in nude mice: metastasis and survival; format: in vivo; conditions: Q2-3 100 μg/kg, DT 5 mg/kg
K562 cells = conditions: cited from earlier work
SKBR3 cells = assay: MTT assay, cytotoxic effect on SKBR3; format: cell-based, human
Procedure: as §1, §2, §3

[1] = MTT assay, cytotoxic effect on M10; format: cell-based; conditions: human, M10 cells (normal human mammary epithelial cell line)
Procedure: as §1
(§4) FIG. 1 is a schematic depiction of cytotoxic effects of dihydrobenzofuran lignan (Q2-3) on breast tumor cells. (a): Scheme for synthesis of Q2-3 (methyl (E)-3-[2-(3,4-dihydroxyphenyl)-7-hydroxy-3-methoxycarbonyl-2,3-dihydro-1-benzofuran-5yl]prop-2-enoate) from two caffeic acid methyl ester molecules. […] The beginning cytotoxic dosage of Q2-3 was detected at 0.3 μM, with >50% kill rate on SKBR3 and MDA-MB-231 cells. […]

[2] = MTT assay, cytotoxic effect on WI38; format: cell-based; conditions: human, WI38 cells (human fibroblast cell line)
Procedure: as §1, §4

COC(=O)/C=C/c1cc(O)c2c(c1)C(C(=O)OC)C(c1ccc(O)c(O)c1)O2 (stereo not shown) [Q2-3, methyl(E)-3-[2-(3,4-dihydroxyphenyl)-7-hydroxy-3-methoxycarbonyl-2,3-dihydro-1-benzofuran-5yl]-prop-2-enoate]
expression of IL-25 in mouse (3T3) fibroblasts (mouse IL-25; 3-D culture, treatment 24 h or 72 h): increased | level of secreted IL-25 in fibroblast-conditioned medium vs untreated (mouse IL-25; 3T3-CM): significantly higher | inhibition at 0.5 µM (MDA-MB-231 cells; Homo sapiens, ≥0.5 μM, 24 h and 72 h, vs 0.1% DMSO control, read-out: growth inhibition): ≥ 60% | kill rate (MDA-MB-231 cells; at 0.3 μM): > 50% | beginning cytotoxic dosage (MDA-MB-231 cells; treatment 24 or 72 h): 0.3 µM | survival rate (MDA-MB-231-Luc2 cells): more effective than treatment with DT | anti-metastatic activity (luminescent activity of MDA-MB-231-Luc2 cells) (MDA-MB-231-Luc2 cells; i.v. 3 weeks post tumor resection): more effective than treatment with DT | anti-proliferation effect (K562 cells): significant anti-proliferation effect | inhibition at 0.5 µM (SKBR3 cells; Homo sapiens, SK-BR-3, ≥0.5 μM, 24 h and 72 h, vs 0.1% DMSO control, read-out: growth inhibition): ≥ 60% | kill rate (SKBR3 cells; at 0.3 μM): > 50% | beginning cytotoxic dosage (SKBR3 cells; treatment 24 or 72 h): 0.3 µM | viability at 2 µM [1]: ≥ 80% | viability at 2 µM [2]: ≥ 80%
